Assay results as given in the supplement of paper PMC3974653.
Where a name gives a salt, the structure may show the parent alone.

tested on: MTT (mouse pheochromocytoma); experiment: IC50 of cell viability (ATP content); settings: (24 or 48 h)
Method in brief: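 The IC50 was fitted with a four-parameter logistic equation to normalised CellTiter-Glo ATP luminescence from MTT mouse pheochromocytoma cells. These cells, in white 1536-well plates, had been treated for 24 or 48 hrs with library compounds at 8 final concentrations between 0.5 nM and 46 µM, and luminescence was read after 15 minutes. Positive-control wells served as 100% and DMSO wells as 0%.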

| SMILES | IC50 of cell viability [µM] |
| --- | --- |
| C[C@@H](O)[C@H]1C(=O)N2C(C(=O)O)=C(S[C@@H]3CN[C@H](CN[S+](N)(=O)[O-])C3)[C@H](C)[C@H]12 [DORIPENEM HYDRATE] | > 46 |
| CCN1CC(CCN2CCOCC2)C(c2ccccc2)(c2ccccc2)C1=O (stereo unspecified) [DOXAPRAM HYDROCHLORIDE] | > 46 |
| CCN(CC)CCOC(=O)C(c1ccccc1)C1CCCCC1.Cl (stereo unspecified) [DROFENINE HYDROCHLORIDE] | > 46 |
| OCC(O)CN1CCN(c2ccccc2)CC1 (stereo unspecified) [DROPROPIZINE] | > 46 |
| CN(C)/N=N/c1nc[nH]c1C(N)=O [Dacarbazine] | > 46 |
| C#C[C@]1(O)CC[C@H]2[C@@H]3CCC4=Cc5oncc5C[C@]4(C)[C@H]3CC[C@@]21C [Danazol] | > 46 |
| CN1C[C@@H]2C[C@H]1CN2c1cc2c(cc1F)c(=O)c(C(=O)O)cn2C1CC1 [Danofloxacin mesylate] | > 46 |
| O=C1c2cccc(O)c2C(=O)c2c(O)cccc21 [Danthron] | > 46 |
| Cc1c(Cn2ccnc2)c2ccccc2n1CCC(=O)O [Dazmegrel] | > 46 |
| CN(C)CCO [Deanol] | > 46 |
| N=C(N)N1CCc2ccccc2C1 [Debrisoquin sulfate] | > 46 |
| CCCCCCCCCC(=O)O [Decanoic acid] | > 46 |
| CCCCCCCCCCOCC(O)CN (stereo unspecified) [Decominol] | > 46 |
| CC(=O)N(O)CCCCCNC(=O)CCC(=O)N(O)CCCCCNC(=O)CCC(=O)N(O)CCCCCN.C[S+](=O)([O-])O [Deferoxamine mesylate] | > 46 |
| CC(=O)O[C@H]1CC[C@]\2(C)[C@@H]3CC[C@@]4(C)[C@H](CCC4=O)[C@@H]3C\C=C2C1 [Dehydroisoandosterone 3-acetate] | > 46 |
| [Na+].C[C@]12CC[C@H]3[C@@H](C\C=C/4C[C@H](CC[C@]34C)O[S]([O-])(=O)=O)[C@@H]1CCC2=O [Dehydroisoandrosterone 3-sulfate sodium] | > 46 |
| Cc1cc(O)cc2c1O[C@](C)(CCC[C@H](C)CCC[C@H](C)CCCC(C)C)CC2 [Delta-Vitamin E] | > 46 |
| CN(C)[C@H]\1[C@@H]2C[C@@H]\3[C@@H](O)C4=C(Cl)C=CC(=C4C(=O)C3=C(\O)[C@@]2(O)C(=O)\C(=C1O)C(N)=O)O [Demeclocycline hydrochloride] | > 46 |
| O=C1C[N+]([O-])=C(c2ccccc2)c2cc(Cl)ccc2N1 [Demoxepam] | > 46 |
| C[C@H](CCC(=O)[O-])[C@H]1CC[C@H]2[C@@H]3CC[C@@H]4C[C@H](O)CC[C@]4(C)[C@H]3C[C@H](O)[C@]12C [Deoxycholic acid sodium salt] | > 46 |
| C[C@@]12CC[C@H]3[C@@H](CC\C4=C\C(=O)CC[C@@]34C)[C@H]1CC[C@H]2C(=O)CO [Deoxycorticosterone] | > 46 |
| C[C@]12CC[C@H]3c4ccc(O)cc4CC[C@@H]3[C@H]1CC[C@@H]2OC(=O)CCC1CCCC1 [Depoestradiol] | > 46 |
| CCCCNc1ccc(C(=O)OCC[NH+](CC)CC)cc1 [Depolipon] | > 46 |
| CN1[C@@H]2CC[C@@H]1CC(OC1c3ccccc3CCc3ccccc31)C2.O=C(O)CC(O)(CC(=O)O)C(=O)O (stereo partly specified) [Deptropine citrate] | > 46 |
| CNCCCN1c2ccccc2CCc2ccccc21 [Desipramine hydrochloride] | > 46 |
| ClC1=CC=C2C(CCC3=C(N=CC=C3)\C2=C4\CCNCC4)=C1 [Desloratadine] | > 46 |
